Experimental data: the NIST ThermoML archive (doi:10.1021/acs.jced.6b01058)

Tests used:
[1] = mn = molality of the nth substance listed, in mol/kg; details: 85 kPa, Liquid, Vibrating tube method
[2] = wn = mass fraction of the nth substance listed; details: 85 kPa, Liquid, Vibrating tube method
[3] = 85 kPa, Liquid, Vibrating tube method

CCCCCCCCCCCC(=O)N(C)CC(=O)[O-].[Na+] [sodium [dodecanoyl(methyl)amino]acetate] + O
mass density [kg/m3], [1]
Details	m1 = 0.02	m1 = 0.03	m1 = 0.04	m1 = 0.05	m1 = 0.06	m1 = 0.07	m1 = 0.08	m1 = 0.09
298.15 K	998.13	998.42	998.73	999.03	999.43	999.67	1000.07	1000.37
303.15 K	996.67	996.99	997.32	997.61	997.96	998.27	998.59	998.88
308.15 K	995.04	995.33	995.67	995.93	996.27	996.56	996.88	997.14
313.15 K	993.18	993.48	993.8	994.06	994.41	994.7	994.95	995.27

CCCO [propan-1-ol] + O
mass density [kg/m3], [2]
Details	298.15 K	303.15 K	308.15 K	313.15 K
w1 = 0.04	990.59	989.14	987.49	985.62
w1 = 0.08	985.46	983.86	982.13	980.12
w1 = 0.16	973.64	971.45	969.08	966.84

CO [methanol] + O
mass density [kg/m3], [2]
Details	298.15 K	303.15 K	308.15 K	313.15 K
w1 = 0.04	989.97	988.62	987.03	985.22
w1 = 0.08	982.92	981.47	979.91	978.12
w1 = 0.16	969.42	967.61	965.92	963.68

CCO [ethanol] + O
mass density [kg/m3], [2]
Details	298.15 K	303.15 K	308.15 K	313.15 K
w1 = 0.04	990.13	988.79	987.24	985.42
w1 = 0.08	983.9	982.43	980.77	978.85
w1 = 0.16	972.57	970.69	968.6	966.4

O [water]
[3]
Details	mass density [kg/m3]
298.15 K	997.29
303.15 K	995.9
308.15 K	994.27
313.15 K	992.46
